# Data: US12662489B2 (Sitryx Therapeutics Limited, priority 2023, dated 2026)
# How the values were obtained:
# [1] = system: murine EAE model; conditions: cited from earlier work
# [2] = target: T1, human α4β2 neuronal nicotinic receptor (Homo sapiens, UniProt P17787+P43681); test: α4β2 neuronal nicotinic receptor assay (agonist radioligand, [3H]cytisine); assay type: binding; conditions: transfected SH-SY5Y cell membranes, 0.6 nM [3H]cytisine, band
# T1 construct: host or cells: SH-SY5Y cells (membrane homogenates)
# T1 sequence (P43681 29-627 limits assumed): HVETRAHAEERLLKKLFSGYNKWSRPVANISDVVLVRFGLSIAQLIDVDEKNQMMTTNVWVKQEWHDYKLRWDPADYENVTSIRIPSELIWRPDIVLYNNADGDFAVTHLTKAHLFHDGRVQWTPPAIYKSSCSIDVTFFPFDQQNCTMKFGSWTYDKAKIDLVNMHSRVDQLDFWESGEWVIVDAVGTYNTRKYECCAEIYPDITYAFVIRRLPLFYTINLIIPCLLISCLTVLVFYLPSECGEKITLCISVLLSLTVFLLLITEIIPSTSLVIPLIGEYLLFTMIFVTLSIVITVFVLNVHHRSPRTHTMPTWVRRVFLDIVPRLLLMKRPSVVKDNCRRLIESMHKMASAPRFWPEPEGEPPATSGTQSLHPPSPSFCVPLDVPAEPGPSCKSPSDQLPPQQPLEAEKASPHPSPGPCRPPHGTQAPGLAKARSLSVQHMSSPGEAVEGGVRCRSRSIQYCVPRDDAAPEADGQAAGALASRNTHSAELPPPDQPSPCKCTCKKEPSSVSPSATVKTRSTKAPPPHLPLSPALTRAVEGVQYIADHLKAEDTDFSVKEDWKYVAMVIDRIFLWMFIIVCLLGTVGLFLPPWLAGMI
# T1 sequence (P17787 26-502): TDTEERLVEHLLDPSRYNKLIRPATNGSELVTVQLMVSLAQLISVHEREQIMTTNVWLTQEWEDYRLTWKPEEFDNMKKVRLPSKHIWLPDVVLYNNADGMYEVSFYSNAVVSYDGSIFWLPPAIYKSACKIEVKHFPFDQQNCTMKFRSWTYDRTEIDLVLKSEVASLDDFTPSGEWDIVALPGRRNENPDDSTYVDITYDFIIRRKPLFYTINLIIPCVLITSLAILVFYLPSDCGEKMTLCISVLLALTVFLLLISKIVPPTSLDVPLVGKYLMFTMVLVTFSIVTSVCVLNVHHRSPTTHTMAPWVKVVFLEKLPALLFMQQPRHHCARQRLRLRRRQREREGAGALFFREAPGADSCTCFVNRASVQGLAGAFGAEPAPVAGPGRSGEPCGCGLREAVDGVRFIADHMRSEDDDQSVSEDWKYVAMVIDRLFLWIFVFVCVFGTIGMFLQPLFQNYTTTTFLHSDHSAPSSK
# Protocol: Cell membrane homogenates (30 μg protein) were incubated for 120 min at 4° C. with 0.6 nM [3H]cytisine in the absence or presence of the test compound in a buffer containing 50 mM Tris-HCl (pH 7.4), 120 mM NaCl, 5 mM KCl, 2.5 mM CaCl2 and 1 mM MgCl2. Nonspecific binding was determined in the presence of 10 μM nicotine bitartrate. Following incubation, the samples were filtered rapidly under vacuum through glass fiber filters (GF/B, Packard) presoaked with 0.3% PEI and rinsed several times with ice-cold 50 mM Tris-HCl using a 96-sample cell harvester (Unifilter, Packard).
# The filters were dried then counted for radioactivity in a scintillation counter (Topcount, Packard) using a scintillation cocktail (Microscint 0, Packard). The results were expressed as a percent inhibition of the control radioligand specific binding. The standard reference compound was nicotine bitartrate.
# A number of example compounds of formula (I) were tested to evaluate their affinity for the human α4β2 neuronal nicotinic receptor expressed in transfected SH-SY5Y cells, determined in a radioligand binding assay.
# [3] = target: T2, MTHFD2 recombinant human enzyme (Homo sapiens, UniProt P13995); test: MTHFD2 inhibition assay (NAD(P)H-Glo luminescence); conditions: for MTHFD1/MTHFD2 IC50 ratio: selectivity of MTHFD2 inhibition over MTHFD1, band
# T2 sequence (P13995 36-350): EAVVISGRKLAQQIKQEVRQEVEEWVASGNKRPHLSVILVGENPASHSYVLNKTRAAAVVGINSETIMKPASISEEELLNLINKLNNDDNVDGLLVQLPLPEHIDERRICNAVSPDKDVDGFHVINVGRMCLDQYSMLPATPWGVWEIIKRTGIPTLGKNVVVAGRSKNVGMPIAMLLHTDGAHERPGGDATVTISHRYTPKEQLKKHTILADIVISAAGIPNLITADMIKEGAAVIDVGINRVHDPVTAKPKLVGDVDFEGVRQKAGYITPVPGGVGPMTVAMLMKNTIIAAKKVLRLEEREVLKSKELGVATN
# [4] = target: T3, MTHFD1 recombinant human enzyme (Homo sapiens, UniProt P11586); test: MTHFD1 inhibition assay (NAD(P)H-Glo luminescence); conditions: MTHFD1 IC50, recombinant human enzyme 200 nM, NADP, band
# T3 sequence (P11586 2-291 limits assumed): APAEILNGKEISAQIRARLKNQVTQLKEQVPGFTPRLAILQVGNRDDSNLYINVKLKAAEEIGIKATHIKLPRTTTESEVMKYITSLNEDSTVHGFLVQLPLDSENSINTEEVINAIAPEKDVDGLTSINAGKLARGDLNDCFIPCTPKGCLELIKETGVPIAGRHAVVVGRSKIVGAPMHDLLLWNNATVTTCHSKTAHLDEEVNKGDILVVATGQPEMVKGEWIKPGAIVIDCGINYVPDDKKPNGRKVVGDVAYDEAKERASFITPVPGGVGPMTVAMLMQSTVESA
# [5] = system: human CD4+ T cells; test: Human CD4+ T-cell proliferation assay (CFSE, CD3/28 beads); conditions: read-out: Proliferation IC50
# [6] = system: CD4+ T-cells; conditions: cited from earlier work
# [7] = system: murine KLH contact sensitization model; conditions: cited from earlier work
IC50 [2] [nM],IC50 [3] [nM],MTHFD1/MTHFD2 IC50 ratio [3],IC50 [4] [nM],Compound,tolerability at the therapeutic doses used ([1]; in vivo),"disease severity and cumulative clinical score compared to vehicle ([1]; mice, oral, day 4 to day 26)","immune cell infiltrate into the spinal cord ([1]; mice, oral, day 4 to day 26)",IC50 [5] [nM],number of Th1 and Th17 cells differentiated in vitro from CD4+ T-cells and expression of the respective Th1 and Th17 cytokines [6],IFNγ and IL-17 ([6]; in vitro),immune-suppressive Treg cells ([6]; in vitro),tolerability at the therapeutic doses used ([7]; in vivo),ear-swelling ([7]; murine KLH contact sensitization model)
,,,,Nc1nc2c(c(=O)[nH]1)N1C(=O)N(c3ccc(C(=O)N[C@@H](CCC(=O)O)C(=O)O)cc3)CC1CN2 (stereo partly shown) [LY345899],well tolerated,significantly reduced,reduced,,,,,,
,,,,Cc1c(N2CCN(C)[C@@H](C)C2)ccc2c3c(c(=O)oc12)CN(C(=O)c1ccc(NS(C)(=O)=O)c(OC(F)(F)F)c1)CC3 [DS18561882],,,,,greatly decreased,significantly reduced,increased,well tolerated,could reduce ear-swelling
20000 to 100000,1 to 10,G (^ 3 to 9.0),10 to 100,"CCOc1c(C(=O)NS(=O)(=O)N2CCCC2)ccc(C(=O)N2CCc3c(c(=O)oc4c(C)c(N5CCN(C)[C@@H](COC)C5)cc(C)c34)C2)c1F [Example 147, (R)-2-ethoxy-3-fluoro-4-(8-(3-(methoxymethyl)-4-methylpiperazin-1-yl)-7,10-dimethyl-5-oxo-1,3,4,5-tetrahydro-2H-chromeno[3,4-c]pyridine-3-carbonyl)-N-(pyrrolidin-1-ylsulfonyl)benzamide]",,,,1 to 10,,,,,
> 100000,10 to 100,G (^ 3 to 9.0),10 to 100,"COC[C@H]1CN(c2cc(C)c3c4c(c(=O)oc3c2C)CN(C(=O)c2ccc(C(=O)NS(=O)(=O)C3(C)CC3)c(N3CCCC3)c2F)CC4)CCN1C [Example 69, (R)-3-fluoro-4-(8-(3-(methoxymethyl)-4-methylpiperazin-1-yl)-7,10-dimethyl-5-oxo-1,3,4,5-tetrahydro-2H-chromeno[3,4-c]pyridine-3-carbonyl)-N-((1-methylcyclopropyl)sulfonyl)-2-(pyrrolidin-1-yl)benzamide]",,,,1 to 10,,,,,
20000 to 100000,1 to 10,J (>30),100 to 1000,"COC[C@H]1CN(c2cc(C)c3c4c(c(=O)oc3c2C)CN(C(=O)c2cc(N(C)C)c(C(=O)NS(=O)(=O)N3CCCC3)cc2F)CC4)CCN1C [Example 144, (R)-2-(dimethylamino)-5-fluoro-4-(8-(3-(methoxymethyl)-4-methylpiperazin-1-yl)-7,10-dimethyl-5-oxo-1,3,4,5-tetrahydro-2H-chromeno[3,4-c]pyridine-3-carbonyl)-N-(pyrrolidin-1-ylsulfonyl)benzamide]",,,,1 to 10,,,,,
> 100000,1 to 10,J (>30),100 to 1000,"COC[C@H]1CN(c2cc(C)c3c4c(c(=O)oc3c2C)CN(C(=O)c2cc(N(C)C)c(C(=O)NS(=O)(=O)C3(C)CC3)cc2F)CC4)CCN1C [Example 145, (R)-2-(dimethylamino)-5-fluoro-4-(8-(3-(methoxymethyl)-4-methylpiperazin-1-yl)-7,10-dimethyl-5-oxo-1,3,4,5-tetrahydro-2H-chromeno[3,4-c]pyridine-3-carbonyl)-N-((1-methylcyclopropyl)sulfonyl)benzamide]",,,,10 to 30,,,,,
20000 to 100000,10 to 100,J (>30),1000 to 5000,"COC[C@H]1CN(c2cc(C)c3c4c(c(=O)oc3c2C)CN(C(=O)c2cc(N(C)C)c(C(=O)NS(=O)(=O)N3CCCC3)cc2Cl)CC4)CCN1C [Example 150, (R)-5-chloro-2-(dimethylamino)-4-(8-(3-(methoxymethyl)-4-methylpiperazin-1-yl)-7,10-dimethyl-5-oxo-1,3,4,5-tetrahydro-2H-chromeno[3,4-c]pyridine-3-carbonyl)-N-(pyrrolidin-1-ylsulfonyl)benzamide]",,,,10 to 30,,,,,
20000 to 100000,10 to 100,,100 to 1000,"COC[C@H]1CN(c2cc(C)c3c4c(c(=O)oc3c2C)CN(C(=O)c2ccc(C(=O)NS(=O)(=O)N3CC5CC5C3)c(OC)c2F)CC4)CCN1C (stereo partly drawn) [Example 156, N-((3-azabicyclo[3.1.0]hexan-3-yl)sulfonyl)-3-fluoro-2-methoxy-4-(8-((R)-3-(methoxymethyl)-4-methylpiperazin-1-yl)-7,10-dimethyl-5-oxo-1,3,4,5-tetrahydro-2H-chromeno[3,4-c]pyridine-3-carbonyl)benzamide]",,,,30 to 100,,,,,
20000 to 100000,10 to 100,J (>30),1000 to 5000,"COC[C@H]1CN(c2cc(C)c3c4c(c(=O)oc3c2C)CN(C(=O)c2ccc(C(=O)NS(=O)(=O)N3CCCC3)cc2F)CC4)CCN1C [Example 175, (R)-3-fluoro-4-(8-(3-(methoxymethyl)-4-methylpiperazin-1-yl)-7,10-dimethyl-5-oxo-1,3,4,5-tetrahydro-2H-chromeno[3,4-c]pyridine-3-carbonyl)-N-(pyrrolidin-1-ylsulfonyl)benzamide]",,,,1000 to 5000,,,,,

Compound,IC50 [2] [nM],IC50 [3] [nM],MTHFD1/MTHFD2 IC50 ratio [3],IC50 [4] [nM],tolerability at the therapeutic doses used ([1]; in vivo),"disease severity and cumulative clinical score compared to vehicle ([1]; mice, oral, day 4 to day 26)","immune cell infiltrate into the spinal cord ([1]; mice, oral, day 4 to day 26)",IC50 [5] [nM],number of Th1 and Th17 cells differentiated in vitro from CD4+ T-cells and expression of the respective Th1 and Th17 cytokines [6],IFNγ and IL-17 ([6]; in vitro),immune-suppressive Treg cells ([6]; in vitro),tolerability at the therapeutic doses used ([7]; in vivo),ear-swelling ([7]; murine KLH contact sensitization model)
"COC[C@@H]1CN(c2cc(C)c3c4c(c(=O)oc3c2C)CN(C(=O)c2ccc(C(=O)NS(=O)(=O)N3CCCC3)c(OC3CCC3)c2F)CC4)CCN1C [Example 174, (S)-2-cyclobutoxy-3-fluoro-4-(8-(3-(methoxymethyl)-4-methylpiperazin-1-yl)-7,10-dimethyl-5-oxo-1,3,4,5-tetrahydro-2H-chromeno[3,4-c]pyridine-3-carbonyl)-N-(pyrrolidin-1-ylsulfonyl)benzamide]",20000 to 100000,10 to 100,G (^ 3 to 9.0),100 to 1000,,,,10 to 30,,,,,
"COC[C@H]1CN(c2cc(C)c3c4c(c(=O)oc3c2C)CN(C(=O)c2ccc(C(=O)NS(=O)(=O)N3CCCC3)c(OC3CCC3)c2F)CC4)CCN1C [Example 3, (R)-2-cyclobutoxy-3-fluoro-4-(8-(3-(methoxymethyl)-4-methylpiperazin-1-yl)-7,10-dimethyl-5-oxo-1,3,4,5-tetrahydro-2H-chromeno[3,4-c]pyridine-3-carbonyl)-N-(pyrrolidin-1-ylsulfonyl)benzamide]",20000 to 100000,10 to 100,F (<3),10 to 100,,,,1 to 10,,,,,
